Results on six compounds are retold here after ChEMBL document CHEMBL4418294, “Morpholines as selective inhibitors of cytochrome P450 2A13” (2013).

Each structure is given as a SMILES string.

The first data set deals with T1, Cytochrome P450 2A6 (Homo sapiens, UniProt P11509).
T1 sequence (P11509 whole entry): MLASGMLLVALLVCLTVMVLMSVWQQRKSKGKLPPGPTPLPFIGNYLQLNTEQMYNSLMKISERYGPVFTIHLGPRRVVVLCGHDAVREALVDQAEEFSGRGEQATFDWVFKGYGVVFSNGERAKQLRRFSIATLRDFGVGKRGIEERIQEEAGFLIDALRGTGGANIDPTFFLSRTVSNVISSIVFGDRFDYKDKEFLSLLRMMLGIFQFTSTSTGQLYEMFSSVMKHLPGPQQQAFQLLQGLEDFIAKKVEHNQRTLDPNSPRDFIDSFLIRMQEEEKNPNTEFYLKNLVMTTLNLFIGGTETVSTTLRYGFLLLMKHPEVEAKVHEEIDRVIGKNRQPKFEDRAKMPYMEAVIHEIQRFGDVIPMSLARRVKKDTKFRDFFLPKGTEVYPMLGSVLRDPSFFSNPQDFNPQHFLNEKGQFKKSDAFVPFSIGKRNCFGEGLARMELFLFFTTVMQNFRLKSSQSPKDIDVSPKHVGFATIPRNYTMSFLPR
Briefly: Binding affinity to full length recombinant truncated non-catalytic N-terminal transmembrane helix containing C-terminal 4xHis tagged human CYP2A6dH expressed in Escherichia coli by HTS assay. Type of data set: ADME.
As to `Fc1ccccc1CN1CCOCC1`, the Kd entry is on record as “Not Active”.
The same measure, in the same setting: to `Brc1ccccc1CN1CCOCC1` belongs “Not Active”; to `Clc1ccccc1CN1CCOCC1`, “Not Active”; to `Cc1ccccc1CN1CCOCC1`, “Not Active”.
The same measure, in the same setting: for `Fc1cccc(Cl)c1CN1CCOCC1` the value was “Not Active”.

For the next data set, the species on record is Homo sapiens. Briefly: Selectivity ratio of Kd for full length recombinant truncated non-catalytic N-terminal transmembrane helix containing C-terminal 4xHis tagged human CYP2A13dH expressed in Escherichia coli to Kd for full length recombinant truncated non-catalytic N-terminal transmembrane helix containing C-terminal 4xHis tagged human CYP2A6dH expressed in Escherichia coli.
As to `CC1CN(Cc2cccc(Cl)c2Cl)CC(C)O1` (stereo unspecified), the Selectivity ratio stood at 12.9.
